In US20210038607A1, “OXADIAZOLYLTHIOPHENE DERIVATIVES USEFUL AS HISTONE DEACETYLASE INHIBITORS” (Karus Therapeutics Limited, priority 2018, published 2021):

Columns and labels:
Human HDAC1 = target: T1, Human HDAC1 (Homo sapiens, UniProt Q13547); assay: HDAC1 biochemical assay, AMC-labeled peptide substrate; conditions: read-out: HDAC Isoform IC50 (nM) 1
T1 construct: full length with C-terminal His-tag and C-terminal FLAG-tag; His (C); FLAG (C); host or cells: baculovirus expression system
Method in brief: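 Two-step fluorogenic read: HDAC1 deacetylates 50 μM acetyl-lysine AMC peptide RHKK(Ac)AMC for 1 h at 30° C (pH 8.0, 1% DMSO, with compound), then developer digests the product for fluorescence at Ex/Em 360/460. Enzyme is full-length human, His/FLAG-tagged, insect-cell expressed, at 0.3 ng/ul.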

Human HDAC2 = target: T2, Human HDAC2 (Homo sapiens, UniProt Q92769); assay: HDAC2 biochemical assay, AMC-labeled peptide substrate; conditions: read-out: HDAC Isoform IC50 (nM) 2
T2 construct: full length with C-terminal GST-tag; GST (C); host or cells: baculovirus expression system
T2 sequence (Q92769 whole entry, canonical isoform): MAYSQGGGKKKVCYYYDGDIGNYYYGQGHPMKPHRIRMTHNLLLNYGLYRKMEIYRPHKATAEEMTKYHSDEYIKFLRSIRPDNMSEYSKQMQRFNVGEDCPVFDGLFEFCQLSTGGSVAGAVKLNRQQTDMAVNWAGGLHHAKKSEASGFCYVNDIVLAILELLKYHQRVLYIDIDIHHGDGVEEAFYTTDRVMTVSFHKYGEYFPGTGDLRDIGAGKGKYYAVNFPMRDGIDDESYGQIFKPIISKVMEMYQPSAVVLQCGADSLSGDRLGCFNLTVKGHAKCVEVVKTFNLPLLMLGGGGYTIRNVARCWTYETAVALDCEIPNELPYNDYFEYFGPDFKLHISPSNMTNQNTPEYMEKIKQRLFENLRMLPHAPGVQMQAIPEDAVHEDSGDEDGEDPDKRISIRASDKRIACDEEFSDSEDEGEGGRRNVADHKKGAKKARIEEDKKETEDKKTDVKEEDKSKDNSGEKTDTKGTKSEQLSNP
Method in brief: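 Full-length human HDAC2 with C-terminal GST tag, baculovirus-expressed, at 0.07 ng/ul with 50 μM RHKK(Ac)AMC substrate in Tris-HCl pH8.0 buffer with BSA, 1% DMSO final. Incubated 1 hour at 30° C with compounds, then developer added; fluorescence read at 360/460 Ex/Em.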

[1] = target: T3, Complex of human HDAC3 and human NCOR2 (Homo sapiens, UniProt O15379); assay: HDAC3 biochemical assay, AMC-labeled peptide substrate; conditions: read-out: HDAC Isoform IC50 (nM) 3
T3 construct: full length with C-terminal His tag, MW=49.7 kDa; His (C); host or cells: baculovirus expression system (co-expressed)
T3 sequence (O15379 whole entry, canonical isoform): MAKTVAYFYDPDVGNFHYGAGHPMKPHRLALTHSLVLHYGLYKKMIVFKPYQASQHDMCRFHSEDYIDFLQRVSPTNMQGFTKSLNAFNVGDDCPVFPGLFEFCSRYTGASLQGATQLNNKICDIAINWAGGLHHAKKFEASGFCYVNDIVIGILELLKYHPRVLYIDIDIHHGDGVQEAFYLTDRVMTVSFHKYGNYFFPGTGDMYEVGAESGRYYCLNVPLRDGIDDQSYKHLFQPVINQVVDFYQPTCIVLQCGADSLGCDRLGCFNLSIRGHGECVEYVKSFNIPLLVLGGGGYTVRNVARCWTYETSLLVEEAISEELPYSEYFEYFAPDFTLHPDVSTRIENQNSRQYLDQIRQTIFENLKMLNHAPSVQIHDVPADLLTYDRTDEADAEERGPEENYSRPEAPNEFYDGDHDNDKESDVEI
T3 sequence (Q9Y618 395-489 partner limits assumed): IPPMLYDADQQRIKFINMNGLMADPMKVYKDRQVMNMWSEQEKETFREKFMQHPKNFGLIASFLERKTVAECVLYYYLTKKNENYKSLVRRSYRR
Method in brief: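 Two-stage fluorogenic read: compounds incubated 1 h at 30° C with 50 μM RHKK(Ac)AMC and 0.1 ng/ul HDAC3–NCOR2(395-489) complex (Tris pH8.0, NaCl, KCl, MgCl2, BSA, 1% DMSO). Developer digestion of deacetylated product gives signal at Ex 360/Em 460.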

Human HDAC5 = target: T4, Human HDAC5 (Homo sapiens, UniProt Q9UQL6); assay: HDAC5 biochemical assay, class IIa-specific substrate; conditions: read-out: HDAC Isoform IC50 (nM) 5
T4 construct: full length with C-terminal His tag, MW=51.1 kDa; His (C); host or cells: baculovirus expression system
T4 sequence (Q9UQL6 656-1122 limits assumed): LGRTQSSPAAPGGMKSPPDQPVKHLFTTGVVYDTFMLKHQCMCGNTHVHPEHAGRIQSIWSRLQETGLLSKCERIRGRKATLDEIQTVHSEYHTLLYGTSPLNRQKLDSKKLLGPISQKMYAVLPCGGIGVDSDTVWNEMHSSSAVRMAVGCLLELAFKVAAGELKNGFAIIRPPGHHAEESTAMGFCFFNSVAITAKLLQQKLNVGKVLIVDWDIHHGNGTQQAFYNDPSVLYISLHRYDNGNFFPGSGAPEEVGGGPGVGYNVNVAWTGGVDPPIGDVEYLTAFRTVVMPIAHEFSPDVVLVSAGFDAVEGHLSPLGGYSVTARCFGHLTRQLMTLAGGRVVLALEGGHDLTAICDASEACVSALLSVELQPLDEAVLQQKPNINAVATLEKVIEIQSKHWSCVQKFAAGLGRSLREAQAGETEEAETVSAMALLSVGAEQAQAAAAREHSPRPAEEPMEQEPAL
Method in brief: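 Two-step fluorogenic read-out: deacetylated trifluoroacetyl-lysine AMC substrate (50 μM) digested by developer, measured at Ex/Em 360/460. Deacetylation step: 0.05 ng/ul His-tagged full-length baculoviral enzyme with compound, 30 min, room temperature, pH 8.0 Tris with 1 mg/mL BSA and 1% DMSO.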

Human HDAC10 = target: T5, Human HDAC10 (Homo sapiens, UniProt Q969S8); assay: HDAC10 biochemical assay, AMC-labeled peptide substrate; conditions: read-out: HDAC Isoform IC50 (nM) 10
T5 construct: Human HDAC10 (a.a. 1-481); GST (N); His (C); host or cells: baculovirus expression system
T5 sequence (Q969S8 1-481): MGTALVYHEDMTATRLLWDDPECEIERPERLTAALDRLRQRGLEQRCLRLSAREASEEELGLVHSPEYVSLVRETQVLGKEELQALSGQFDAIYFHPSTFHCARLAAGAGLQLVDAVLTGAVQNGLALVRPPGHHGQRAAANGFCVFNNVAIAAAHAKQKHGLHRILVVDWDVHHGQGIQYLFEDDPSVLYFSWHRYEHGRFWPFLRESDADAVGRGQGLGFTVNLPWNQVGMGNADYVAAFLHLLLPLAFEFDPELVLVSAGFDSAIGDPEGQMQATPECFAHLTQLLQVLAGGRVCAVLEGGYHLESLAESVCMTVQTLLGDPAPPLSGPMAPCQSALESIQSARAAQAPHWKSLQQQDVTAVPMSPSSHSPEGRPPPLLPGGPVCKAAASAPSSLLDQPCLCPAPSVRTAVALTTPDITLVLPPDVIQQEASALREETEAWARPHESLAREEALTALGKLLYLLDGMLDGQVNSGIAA
Method in brief: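 Two-step fluorogenic read-out (Ex/Em 360/460) after developer digestion of deacetylated RHKK(Ac)AMC (50 μM). Deacetylation ran 2 h at 30 °C with 12 ng/ul HDAC10 (aa 1-481, GST/His tags, baculovirus) in Tris-HCl pH 8.0, BSA, 1% DMSO.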

T1 sequence (Q13547 whole entry, canonical isoform): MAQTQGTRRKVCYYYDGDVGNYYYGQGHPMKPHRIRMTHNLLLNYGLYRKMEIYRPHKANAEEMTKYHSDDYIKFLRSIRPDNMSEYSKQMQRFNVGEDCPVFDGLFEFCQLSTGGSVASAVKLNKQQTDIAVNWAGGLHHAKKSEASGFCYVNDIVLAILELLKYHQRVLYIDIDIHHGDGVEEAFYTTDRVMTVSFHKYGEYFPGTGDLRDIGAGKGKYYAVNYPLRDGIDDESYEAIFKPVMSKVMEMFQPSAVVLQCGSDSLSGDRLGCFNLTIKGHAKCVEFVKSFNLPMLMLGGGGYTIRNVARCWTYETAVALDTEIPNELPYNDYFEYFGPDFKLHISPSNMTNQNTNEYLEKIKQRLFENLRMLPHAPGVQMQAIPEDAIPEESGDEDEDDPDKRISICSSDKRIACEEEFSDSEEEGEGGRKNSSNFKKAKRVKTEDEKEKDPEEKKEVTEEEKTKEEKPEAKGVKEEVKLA

Nc1cnnc(N(Cc2ccc(-c3noc(C(F)(F)F)n3)s2)c2cnccn2)c1 [Example FL, N3-(Pyrazin-2-yl)-N3-({5-[5-(trifluoromethyl)-1,2,4-oxadiazol-3-yl]thiophen-2-yl}methyl)pyridazine-3,5-diamine]
IC50 (Human HDAC1): > 10000 nM | IC50 (Human HDAC2): > 10000 nM | IC50 [1]: > 10000 nM | IC50 (Human HDAC5): ≤ 500 nM | IC50 (Human HDAC10): > 10000 nM

O=C(c1ccc(N(Cc2ccc(-c3noc(C(F)(F)F)n3)s2)c2cnccn2)nn1)N1CCCCC1 [Example FG, 6-(Piperidine-1-carbonyl)-N-(pyrazin-2-yl)-N-({5-[5-(trifluoromethyl)-1,2,4-oxadiazol-3-yl]thiophen-2-yl}methyl)pyridazin-3-amine]
IC50 (Human HDAC1): > 10000 nM | IC50 (Human HDAC2): > 10000 nM | IC50 [1]: > 10000 nM | IC50 (Human HDAC5): ≤ 500 nM | IC50 (Human HDAC10): > 10000 nM

CC1(c2cnnc(N(Cc3ccc(-c4noc(C(F)(F)F)n4)s3)c3cnccn3)c2)COC1 [Example GT, 5-(3-Methyloxetan-3-yl)-N-(pyrazin-2-yl)-N-({5-[5-(trifluoromethyl)-1,2,4-oxadiazol-3-yl]thiophen-2-yl}methyl)pyridazin-3-amine]
IC50 (Human HDAC1): > 10000 nM | IC50 (Human HDAC2): > 10000 nM | IC50 [1]: > 10000 nM | IC50 (Human HDAC5): ≤ 1000 nM | IC50 (Human HDAC10): > 10000 nM

[O-][S+]1CCN(Cc2ccc(N(Cc3ccc(-c4noc(C(F)(F)F)n4)s3)c3cnccn3)nn2)CC1 [Example FO, 4-({6-[(Pyrazin-2-yl)({5-[5-(trifluoromethyl)-1,2,4-oxadiazol-3-yl]thiophen-2-yl}methyl)amino]pyridazin-3-yl}methyl)-1lambda4-thiomorpholin-1-one]
IC50 (Human HDAC1): > 10000 nM | IC50 (Human HDAC2): > 10000 nM | IC50 [1]: > 10000 nM | IC50 (Human HDAC5): ≤ 1000 nM | IC50 (Human HDAC10): > 10000 nM

O=C(O)c1cnnc(N(Cc2sc(-c3noc(C(F)(F)F)n3)cc2F)c2cnccn2)c1 [Example FA, 6-[({3-fluoro-5-[5-(trifluoromethyl)-1,2,4-oxadiazol-3-yl]thiophen-2-yl}methyl)(pyrazin-2-yl)amino]pyridazine-4-carboxylic acid]
IC50 (Human HDAC1): > 10000 nM | IC50 (Human HDAC2): > 10000 nM | IC50 [1]: ≤ 10000 nM | IC50 (Human HDAC5): ≤ 1000 nM | IC50 (Human HDAC10): > 10000 nM

O=C(c1cnnc(N(Cc2ccc(-c3noc(C(F)(F)F)n3)s2)c2cnccn2)c1)N1C[C@@H]2C[C@H]1CO2 [Example FV, 5-[(1S,4S)-2-Oxa-5-azabicyclo[2.2.1]heptane-5-carbonyl]-N-(pyrazin-2-yl)-N-({5-[5-(trifluoromethyl)-1,2,4-oxadiazol-3-yl]thiophen-2-yl}methyl)pyridazin-3-amine]
IC50 (Human HDAC1): > 10000 nM | IC50 (Human HDAC2): > 10000 nM | IC50 [1]: > 10000 nM | IC50 (Human HDAC5): ≤ 1000 nM | IC50 (Human HDAC10): > 10000 nM

COC1(C(F)(F)F)CN(C(=O)c2cnnc(N(Cc3ccc(-c4noc(C(F)(F)F)n4)s3)c3cnccn3)c2)C1 [Example GL, 5-[3-Methoxy-3-(trifluoromethyl)azetidine-1-carbonyl]-N-(pyrazin-2-yl)-N-({5-[5-(trifluoromethyl)-1,2,4-oxadiazol-3-yl]thiophen-2-yl}methyl)pyridazin-3-amine]
IC50 (Human HDAC1): ≤ 10000 nM | IC50 (Human HDAC2): > 10000 nM | IC50 [1]: ≤ 10000 nM | IC50 (Human HDAC5): ≤ 1000 nM | IC50 (Human HDAC10): > 10000 nM

O=C(c1cnnc(N(Cc2ccc(-c3noc(C(F)(F)F)n3)s2)c2cnccn2)c1)N1CC(F)(F)C1 [Example FT, 5-(3,3-Difluoroazetidine-1-carbonyl)-N-(pyrazin-2-yl)-N-({5-[5-(trifluoromethyl)-1,2,4-oxadiazol-3-yl]thiophen-2-yl}methyl)pyridazin-3-amine]
IC50 (Human HDAC1): > 10000 nM | IC50 (Human HDAC2): > 10000 nM | IC50 [1]: > 10000 nM | IC50 (Human HDAC5): ≤ 1000 nM | IC50 (Human HDAC10): > 10000 nM

FC(F)(F)c1cnnc(N(Cc2ccc(-c3noc(C(F)(F)F)n3)s2)c2cnccn2)c1 [Example EF, N-(Pyrazin-2-yl)-5-(trifluoromethyl)-N-({5-[5-(trifluoromethyl)-1,2,4-oxadiazol-3-yl]thiophen-2-yl}methyl)pyridazin-3-amine]
IC50 (Human HDAC1): > 10000 nM | IC50 (Human HDAC2): > 10000 nM | IC50 [1]: > 10000 nM | IC50 (Human HDAC5): ≤ 10000 nM | IC50 (Human HDAC10): > 10000 nM
